Like-named read-outs stand apart in the source and are kept apart here.
Test system: HBV rcDNA in HepDE19 cells
Test: HepDE19 assay with bDNA quantitation of HBV rcDNA
Assay type: cell-based, hepatitis B virus
Conditions: inhibition of rcDNA formation, bDNA quantitation, read-out: DE-19bDNA EC50
[1] = Hepatitis B virus, HepDE19, HepDE19 assay

`CCc1cc(F)cc2[nH]c(C(=O)N(C)C3CNCc4[nH]c(=O)c5cc(F)c(F)cc5c43)cc12` (single isomer, unassigned) [Compound 401, N-(8,9-Difluoro-6-oxo-1,2,3,4,5,6-hexahydrobenzo[c][1,7]naphthyridin-1-yl)-4-ethyl-6-fluoro-N-methyl-1H-indole-2-carboxamide] was tested, and the EC50 (HepDE19 assay) was 2500 nM.

For `CN(C(=O)c1cc2c(F)cccn2c1)C1CNCc2[nH]c(=O)c3cc(F)c(F)cc3c21` (single isomer, unassigned) [Compound 160, N-(8,9-Difluoro-6-oxo-1,2,3,4,5,6-hexahydrobenzo[c][1,7]naphthyridin-1-yl)-8-fluoro-N-methylindolizine-2-carboxamide], the EC50 (HepDE19 assay) was 16200 nM.

`CN(C(=O)c1cc2c(F)c(F)c(F)cc2[nH]1)[C@@H]1COCc2[nH]c(=O)c3cc(F)c(F)cc3c21` [Compound 97, (S)-N-(8,9-Difluoro-6-oxo-1,4,5,6-tetrahydro-2H-pyrano[3,4-c]isoquinolin-1-yl)-4,5,6-trifluoro-N-methyl-1H-indole-2-carboxamide] was tested, and the EC50 [1] was 10 nM.

`CN(C(=O)c1cc2cccc(F)c2[nH]1)C1COCc2[nH]c(=O)c3cc(F)c(F)cc3c21` (single isomer, unassigned) [Compound 39, N-(8,9-Difluoro-6-oxo-1,4,5,6-tetrahydro-2H-pyrano[3,4-c]isoquinolin-1-yl)-7-fluoro-N-methyl-1H-indole-2-carboxamide] was tested, and the EC50 (HepDE19 assay) was 770 nM.

Molecule `CN(C(=O)c1cc2c(C(F)F)c(F)ccc2[nH]1)C1CNCc2[nH]c(=O)c3cc(F)c(F)cc3c21` (single isomer, unassigned) [Compound 265, N-(8,9-Difluoro-6-oxo-1,2,3,4,5,6-hexahydrobenzo[c][1,7]naphthyridin-1-yl)-4-(difluoromethyl)-5-fluoro-N-methyl-1H-indole-2-carboxamide] has an EC50 (HepDE19 assay) of 20 nM.

With `CN(C(=O)c1ccc(C#N)c(F)c1)[C@@H]1COCc2[nH]c(=O)c3cc(F)c(F)cc3c21` [Compound 100, (S)-4-Cyano-N-(8,9-difluoro-6-oxo-1,4,5,6-tetrahydro-2H-pyrano[3,4-c]isoquinolin-1-yl)-3-fluoro-N-methylbenzamide] the EC50 [1] was 40 nM.

In the case of `CN(C(=O)c1cc2c(C(F)F)cccc2[nH]1)C1COCc2[nH]c(=O)c3cc(F)ccc3c21` (single isomer, unassigned) [Compound 182, 4-(Difluoromethyl)-N-(8-fluoro-6-oxo-1,4,5,6-tetrahydro-2H-pyrano[3,4-c]isoquinolin-1-yl)-N-methyl-1H-indole-2-carboxamide], the EC50 (HepDE19 assay) is reported as 750 nM.

Molecule `CN(C(=O)c1cc2c(OC(F)(F)F)cccc2[nH]1)[C@@H]1COCc2[nH]c(=O)c3cc(F)c(F)cc3c21` [Compound 363, (S)-N-(8,9-Difluoro-6-oxo-1,4,5,6-tetrahydro-2H-pyrano[3,4-c]isoquinolin-1-yl)-N-methyl-4-(trifluoromethoxy)-1H-indole-2-carboxamide] has an EC50 [1] of 20 nM.

For `CN(C(=O)c1cc2cc(F)c(F)cc2[nH]1)C1COCc2nc(NCCO)c3cc(F)c(F)cc3c21` (single isomer, unassigned) [Compound 335, N-(8,9-Difluoro-6-((2-hydroxyethyl)amino)-1,4-dihydro-2H-pyrano[3,4-c]isoquinolin-1-yl)-5,6-difluoro-N-methyl-1H-indole-2-carboxamide], the EC50 (HepDE19 assay) was 440 nM.

`COc1nc2c(c3cc(F)c(F)cc13)[C@H](N(C)C(=O)c1cc3cc(F)c(F)cc3[nH]1)COC2` [Compound 241, (S)-N-(8,9-Difluoro-6-methoxy-1,4-dihydro-2H-pyrano[3,4-c]isoquinolin-1-yl)-5,6-difluoro-N-methyl-1H-indole-2-carboxamide] was tested, and the EC50 [1] was 30 nM.

In the case of `CN(C(=O)c1cc2c(Br)c(Cl)ncc2[nH]1)[C@@H]1COCc2[nH]c(=O)c3cc(F)c(F)cc3c21` [Compound 384, (S)-4-Bromo-5-chloro-N-(8,9-difluoro-6-oxo-1,4,5,6-tetrahydro-2H-pyrano[3,4-c]isoquinolin-1-yl)-N-methyl-1H-pyrrolo[2,3-c]pyridine-2-carboxamide], the EC50 [1] is reported as 20 nM.

In the case of `Cc1cccc2[nH]c(C(=O)N(C)C3COCc4[nH]c(=O)c5cc(F)ccc5c43)cc12` (single isomer, unassigned) [Compound 423, N-(8-Fluoro-6-oxo-1,4,5,6-tetrahydro-2H-pyrano[3,4-c]isoquinolin-1-yl)-N,4-dimethyl-1H-indole-2-carboxamide], the EC50 (HepDE19 assay) is reported as 10 nM.

In the case of `CN(C(=O)c1cc2c(Cl)cccc2[nH]1)C1CNCc2[nH]c(=O)c3cc(F)c(F)cc3c21` (single isomer, unassigned) [Compound 440, 4-Chloro-N-(8,9-difluoro-6-oxo-1,2,3,4,5,6-hexahydrobenzo[c][1,7]naphthyridin-1-yl)-N-methyl-1H-indole-2-carboxamide], the EC50 (HepDE19 assay) is reported as 2200 nM.

With `CN(C(=O)c1cc2cccc(C(F)F)n2c1)C1CNCc2[nH]c(=O)c3cc(F)c(F)cc3c21` (single isomer, unassigned) [Compound 432, N-(8,9-Difluoro-6-oxo-1,2,3,4,5,6-hexahydrobenzo[c][1,7]naphthyridin-1-yl)-5-(difluoromethyl)-N-methylindolizine-2-carboxamide] the EC50 (HepDE19 assay) was 23000 nM.

`CN(C(=O)c1ccc2nn(C(F)F)c(Cl)c2c1)[C@@H]1COCc2[nH]c(=O)c3cc(F)c(F)cc3c21` [Compound 360, (S)-3-Chloro-N-(8,9-difluoro-6-oxo-1,4,5,6-tetrahydro-2H-pyrano[3,4-c]isoquinolin-1-yl)-2-(difluoromethyl)-N-methyl-2H-indazole-5-carboxamide] gave an EC50 [1] of 120 nM.

For `CN(C(=O)C(F)(F)c1ccc(Br)cc1)[C@@H]1COCc2[nH]c(=O)c3cc(F)c(F)cc3c21` [Compound 253, (S)-2-(4-Bromophenyl)-N-(8,9-difluoro-6-oxo-1,4,5,6-tetrahydro-2H-pyrano[3,4-c]isoquinolin-1-yl)-2,2-difluoro-N-methylacetamide], the EC50 [1] was 8000 nM.

`CN(C(=O)c1cc2cc(F)c(F)cc2[nH]1)C1COCc2nc(NCCO)c3cc(F)c(F)cc3c21` (single isomer, unassigned) [Compound 336, N-(8,9-Difluoro-6-((2-hydroxyethyl)amino)-1,4-dihydro-2H-pyrano[3,4-c]isoquinolin-1-yl)-5,6-difluoro-N-methyl-1H-indole-2-carboxamide] was tested, and the EC50 (HepDE19 assay) was 10 nM.

`CN(C(=O)c1cc2sccc2[nH]1)[C@@H]1COCc2[nH]c(=O)c3cc(F)c(F)cc3c21` [Compound 278, (S)-N-(8,9-Difluoro-6-oxo-1,4,5,6-tetrahydro-2H-pyrano[3,4-c]isoquinolin-1-yl)-N-methyl-4H-thieno[3,2-b]pyrrole-5-carboxamide] showed an EC50 [1] of 20 nM.

Work on `COc1n[nH]c2ccc(C(=O)N(C)[C@@H]3COCc4[nH]c(=O)c5cc(F)c(F)cc5c43)cc12` [Compound 369, (S)-N-(8,9-Difluoro-6-oxo-1,4,5,6-tetrahydro-2H-pyrano[3,4-c]isoquinolin-1-yl)-3-methoxy-N-methyl-1H-indazole-5-carboxamide] yielded an EC50 [1] of 6100 nM.

For `CN(C(=O)c1cc2cccc(F)c2[nH]1)C1COCc2[nH]c(=O)c3cc(F)ccc3c21` (single isomer, unassigned) [Compound 34, 7-Fluoro-N-(8-fluoro-6-oxo-1,4,5,6-tetrahydro-2H-pyrano[3,4-c]isoquinolin-1-yl)-N-methyl-1H-indole-2-carboxamide], the EC50 (HepDE19 assay) was 30 nM.
